Legend:
[1] = Pharmacokinetic study in rats after oral administration of Semen Cuscutae extract (HPLC-MS/MS of plasma); assay type: in vivo, Sprague–Dawley rats; settings: oral Semen Cuscutae extract 13 g/kg; for AUC: read-out: AUC(0-tn); for plasma concentration after 15 minutes of intragastric administration: LLOQ 1 ng/mL
Method: 20 μL of methanol, 20 μL of IS (liquiritin, 200 ng/mL) and 20 μL of formic acid were added to 100 μL of plasma sample and then vortex-mixed. The mixture was extracted with 800 μL of acetonitrile by vortexing for 3 min. After centrifugation at 14000 rpm for 10 min, the supernatant was transferred to a clean glass tube and dried with nitrogen. The residue was reconstituted in 100 μL of methanol and then centrifuged at 14000 rpm for 10 min. 5 μL of supernatant was injected into the LC–MS/MS system for analysis.
Six Sprague–Dawley rats (SPF, 200 ± 10 g, male) were purchased from HFK Laboratory Animal Technology Co., Ltd. The rats were housed in a standard laboratory condition (12 h dark-light cycle; temperature was 25°C ± 2°C and humidity was kept 50 ± 5%) and fed standard dry pellet diet and water for one week for acclimatization. Before the experiments, the rats were in fasting state for 12 h, with free access to water. The Semen Cuscutae extracts were dissolved in 0.5% carboxymethyl cellulose-sodium, prepared into suspension and gavage to the rats at a dose of 13 g/kg. Approximately 200 μL of rat blood samples was collected from the orbital venous plexus at 0, 0.03, 0.08, 0.17, 0.25, 0.5, 1, 2, 4, 6, 8, 10, 12, 24, 36, and 48 h after oral administration into 1.5 mL heparinized centrifuge tube. After centrifugation at 7000 rpm for 10 min immediately, the supernatant was collected into a new centrifuge tube and stored at −70°C until analysis.
Pharmacokinetic parameters (Cmax, t1/2, Tmax, AUC(0-tn), and AUC(0-∞)) were obtained using the software “Drug and Statistics 3.0” (DAS 3.0) (Medical College of Wannan, China).

[2] = Stability of analytes in rat plasma QC samples under processing and storage conditions; assay type: in vitro ADME; settings: n = 6; for Measured concentration, room temperature for 4h / Measured concentration, three freeze-thaw / Measured concentration, −70°C for 21 days: rat plasma; for Measured concentration, autosampler for 12h: treated rat plasma sample
Method: The stability of the 13 analytes was evaluated by QC samples in different processing and storage conditions, including short-term stability (putting the analytes in ambient temperature for 4 h and storing analytes in autosampler for 12 h after treatment), long-term stability (storing the analytes at −70°C for 21 days) and subjecting analytes to three freeze-thaw cycles. All stability experiments were tested in six parallels with low, middle, and high concentrations.

[3] = male, Sprague-Dawley, rat, plasma, po, 13 g/kg, n = 6
[4] = male, Sprague-Dawley, rat plasma, n = 6
[5] = rat plasma, n = 6, listed as hyperoside

Structure (SMILES) | AUC(0-inf) [1, 4] | Cmax [1, 4] | AUC [1, 4] | t 1/2 ([1]; rat plasma, n = 6) | plasma concentration after 15 minutes of intragastric administration ([1]; rat plasma) | Measured concentration, room temperature for 4h ([2]; spiked 2 ng/mL) | Measured concentration, three freeze-thaw ([2]; spiked 2 ng/mL) | Measured concentration, −70°C for 21 days ([2]; spiked 2 ng/mL) | Measured concentration, room temperature for 4h ([2]; spiked 25 ng/mL) | Measured concentration, three freeze-thaw ([2]; spiked 25 ng/mL) | Measured concentration, −70°C for 21 days ([2]; spiked 25 ng/mL) | Measured concentration, room temperature for 4h ([2]; spiked 250 ng/mL) | Measured concentration, three freeze-thaw ([2]; spiked 250 ng/mL) | Measured concentration, −70°C for 21 days ([2]; spiked 250 ng/mL) | Measured concentration, autosampler for 12h ([2]; spiked 2 ng/mL) | Measured concentration, autosampler for 12h ([2]; spiked 25 ng/mL) | Measured concentration, autosampler for 12h ([2]; spiked 250 ng/mL) | other results
C[C@@H]1O[C@@H](OC[C@H]2O[C@@H](Oc3c(-c4ccc(O)c(O)c4)oc4cc(O)cc(O)c4c3=O)[C@H](O)[C@@H](O)[C@@H]2O)[C@H](O)[C@H](O)[C@H]1O [Rutin] | 4790 ± 2240 ng·h/mL | 158 ± 84.1 ng/mL | 4460 ± 2270 ng·h/mL | 7.70 ± 0.90 h | – | – | – | – | – | – | – | – | – | – | – | – | – | Tmax [1, 3]: 10 ± 0.03 h; half-life [1, 3]: > 7.5 h; C max ([1]; rat plasma, n = 6): higher than that of other components; Measured concentration, room temperature for 4h ([2]; spiked 4 ng/mL): 3.9 ± 0.2 ng/mL; Measured concentration, three freeze-thaw ([2]; spiked 4 ng/mL): 4.0 ± 0.1 ng/mL; Measured concentration, −70°C for 21 days ([2]; spiked 4 ng/mL): 4.0 ± 0.1 ng/mL; Measured concentration, room temperature for 4h ([2]; spiked 50 ng/mL): 56.3 ± 2.3 ng/mL; Measured concentration, three freeze-thaw ([2]; spiked 50 ng/mL): 57.7 ± 1.0 ng/mL; Measured concentration, −70°C for 21 days ([2]; spiked 50 ng/mL): 52.7 ± 3.9 ng/mL; Measured concentration, room temperature for 4h ([2]; spiked 500 ng/mL): 505.7 ± 13.0 ng/mL; Measured concentration, three freeze-thaw ([2]; spiked 500 ng/mL): 513.1 ± 7.4 ng/mL; Measured concentration, −70°C for 21 days ([2]; spiked 500 ng/mL): 494.4 ± 8.8 ng/mL; Measured concentration, autosampler for 12h ([2]; spiked 4 ng/mL): 4.0 ± 0.2 ng/mL; Measured concentration, autosampler for 12h ([2]; spiked 50 ng/mL): 49.8 ± 2.7 ng/mL; Measured concentration, autosampler for 12h ([2]; spiked 500 ng/mL): 489.3 ± 14.2 ng/mL
O=c1c(O)c(-c2ccc(O)cc2)oc2cc(O)cc(O)c12 [Kaempferol] | – | – | – | – | lower than the LLOQ | 2.2 ± 0.2 ng/mL | 2.0 ± 0.2 ng/mL | 2.0 ± 0.1 ng/mL | 24.8 ± 0.3 ng/mL | 26.2 ± 1.6 ng/mL | 25.7 ± 0.8 ng/mL | 247.5 ± 6.3 ng/mL | 252.6 ± 7.5 ng/mL | 257.2 ± 6.4 ng/mL | 2.1 ± 0.2 ng/mL | 25.4 ± 2.5 ng/mL | 254.0 ± 4.9 ng/mL | –
O=c1cc(-c2ccc(O)cc2)oc2cc(O)cc(O)c12 [Apigenin] | – | – | – | – | lower than the LLOQ | 2.2 ± 0.1 ng/mL | 2.0 ± 0.1 ng/mL | 2.1 ± 0.1 ng/mL | 26.4 ± 1.2 ng/mL | 25.7 ± 2.0 ng/mL | 26.5 ± 1.3 ng/mL | 249.3 ± 12.8 ng/mL | 262.2 ± 16.0 ng/mL | 257.8 ± 8.2 ng/mL | 2.1 ± 0.2 ng/mL | 25.0 ± 1.2 ng/mL | 248.5 ± 4.9 ng/mL | –
O=c1c(O[C@@H]2O[C@H](CO)[C@H](O)[C@H](O)[C@H]2O)c(-c2ccc(O)c(O)c2)oc2cc(O)cc(O)c12 [Hyperoside] | 754 ± 424 ng·h/mL | 29.8 ± 12.8 ng/mL | 684 ± 407 ng·h/mL | 0.36 ± 0.23 h | – | 2.0 ± 0.1 ng/mL | 2.1 ± 0.1 ng/mL | 1.9 ± 0.1 ng/mL | 23.0 ± 1.2 ng/mL | 26.2 ± 1.5 ng/mL | 26.4 ± 1.8 ng/mL | 244.4 ± 14.3 ng/mL | 254.7 ± 9.7 ng/mL | 256.4 ± 15.8 ng/mL | 1.8 ± 0.1 ng/mL | 23.6 ± 0.7 ng/mL | 230.2 ± 13.1 ng/mL | T max ([1]; rat plasma, n = 6): 0.17 ± 0.07 h; T max [1, 5]: less than 1 h; t 1/2 [1, 5]: less than 1.5 h

Reference: PMC6925736, “Development of a HPLC-MS/MS Method to Determine the 13 Elements of Semen Cuscutae and Application to a Pharmacokinetic Study in Rats” (Evidence-based Complementary and Alternative Medicine : eCAM, 2019)
